Reference: patent publication US20020198135A1, “Compositions for release of radiosensitizers, and methods of making and using the same” (priority 2000, published 2002)

Legend:
[1] = test system: human cancer cell line JHU 012; experiment: JHU 012 human cancer cell line tumor in the anterior floor of the mouth of nude mice, intratumoral injection; format: in vivo, immunocompromised (nude) mice; conditions: intratumoral injection ten days after cell injection, same radiation treatment (as appropriate); measured at approximately twenty days after injection
Procedure: In another in vivo experiment, 1×10^7 cells from the human cancer cell line JHU 012 were injected into the anterior floor of the mouth of immunocompromised (nude) mice. Ten days following injection, animals were anesthetized, tumors measured, intumoral injections of the same compositions identified above were completed followed by the same radiation treatment (as appropriate). At approximately twenty days after injection, animals sacrificed and tumors measured. The following approximate tumor sizes (mm^3) were observed: no treatment, 750; radiation alone, 300; empty microspheres, 500; 47% IUdR microspheres (1.175 mg IUdR in injection volume of 50 ul), 425; empty rods, 250; 33% IUdR rods, 350; and direct intrumoral injection of IUdR (0.065 mg to 0.12 mg in injection volume of 50 ul), 100.

U251 xenograft = U251 xenograft model, IUdR polymer paste with continuous ULDR and fractionated HDR; format: in vivo, mice; conditions: IUdR via 16.7% P(trans-CHDM/HOP) paste, ULDR 0.03 Gy/hr for 72 hr, FIG. 25
Procedure: To test the effect of protracted exposure sensitization, a 137-Cs source was mounted a fixed distance above the cages of animals bearing xenografts for whole body continuous ULDR (as defined below). […] For purposes of this experiment, ULDR=0.03 Gy/hr for 72 hr started 24 hours after xenograft transplantation, and HDR=2 Gy twice a day for 4 days, started immediately after ULDR, which is 4 days after implantation.

Compound: O=c1[nH]c(=O)n([C@H]2C[C@H](O)[C@@H](CO)O2)cc1I [IUdR, 5-iododeoxyuridine]
- approximate tumor size [1]: ~100 mm^3
- xenograft growth delay, combination of IUdR and ULDR compared with ULDR plus HDR (U251 xenograft): more potent than the combination of IUdR and ULDR
- xenograft growth, combination of IUdR, ULDR and HDR (U251 xenograft; HDR 2 Gy twice a day for 4 days): tumor regression
